Test results published in patent publication US7588885B2, “Use of biocistronic DNA constructs for identifying compounds that inhibit IRES-dependent translation” (Chung Yuan Christian University, priority 2004, dated 2009).
Values after ≈ are worked out from the molar mass of the structure shown.

Experiments:
IRES of EV71 = assay: cells; assay type: cell-based; conditions: for selective inhibition on IRES-dependent translation without affecting CAP-dependent translation (screening, FIG. 2): Cos-1 cells transfected with EV-71 IRES construct, amantadine 0.1 mg/ml, IFN-α 10 units, stavudine 0.05 mg/ml, 12 hrs
Procedure: (§1) Plasmid PGS-EMCV is constructed by inserting into the plasmid pTriEx-4 (obtained from Novagene) template sequences of two reporter genes (cistrons), i.e., β-galactosidase (β-gal), and secreted human placental alkaline phosphatase (SEAP), with a promoter upstream of the first cistron (i.e., β-gal) and an EMCV-IRES sequence downstream of it, between the first cistron and the second cistron (i.e., SEAP). Plasmid pGS-EV71 and pGS-HCV are prepared in similar manner except an EV71-IRES sequence or a HCV-IRES sequence was used to replace the EMCV-IRES sequence.
(§2) The kidney cells from African green monkey, i.e., Cos-1 cells, were transfected with the bicistronic DNA constructs prepared according to Example 1. The method of transfection is well known in the art. Briefly, a transfecting stock solution was prepared as follows: 1) solution A: 1 μg of the bicistronic DNA constructs of Example 1 was dissolved in serum free culturing medium, with its final volume adjusted to be 50 μl; 2) solution B: 2 μl of lipofectAMINE 2000 (obtained from Invitrogen) was mixed with 50 μl of serum free culturing medium; 3) mixed solution A with solution B. Cos-1 cells (0.5−2×10^5/well, 24 wells) were first incubated with 500 μl of the serum free culturing medium for a period of 20 min, and then 102 μl of the transfecting stock solution prepared above was added. The transfected cells were then return to culture environment (37°C., 5% CO2). After 12 hrs, the culturing medium were replaced by a medium containing fetal bovine serum and antibiotics, the transfected cells were continued to culture for another 12 hrs before used in the following compound screening procedure.
(§3) The candidate compounds prepared according to the methods described above were dissolved in PBS, with stock concentration to be 10 mg/ml. These stock solutions were then diluted to proper ranges according to various screening conditions required.
(§4) Reporter proteins activities, i.e., secreted Human Alkaline Phosphatase (SEAP) and β-galactosidase (β-gal), were measured with BD Great EscApe SEAP Detection kit (Cat. No. K2041-1, available from Clontech) and Luminescent β-gal Detection kit (Cat. No. K2048-1, available from Clontech), respectively, according to the manufacturer's instruction.

IRES of EMCV = assay: Bicistronic pGS-EMCV reporter assay in Cos-1 cells, SEAP activity (IRES-dependent translation); assay type: cell-based
Procedure: as §1, §2
as §3, with “required. […] Then, the identified tested compound can be used in preparation of a medicament for treating EV or EMCV infection.” for “required.”
as §4

[1] = tested on: CAP-dependent translation; assay: Bicistronic pGS-EV71 reporter assay in Cos-1 cells, β-gal activity (CAP-dependent translation); assay type: cell-based, African green monkey
Procedure: as §1
(§5) The kidney cells from African green monkey, i.e., Cos-1 cells, were transfected with the bicistronic DNA constructs prepared according to Example 1. The method of transfection is well known in the art. […]
as §4

[2] = tested on: CAP-dependent translation; assay: Bicistronic pGS-EMCV reporter assay in Cos-1 cells, β-gal activity (CAP-dependent translation); assay type: cell-based, African green monkey
Procedure: as §1, §5, §4

EV-71 = EV-71 whole cell antiviral activity; assay type: cell-based; conditions: Enterovirus A, EV71
IRES of HCV = assay: Bicistronic pGS-HCV reporter assay (IRES of HCV); assay type: cell-based, HCV (hepatitis C virus); conditions: data not shown
Procedure: as §1, §5, §4

Row | Compound | selective inhibition on IRES-dependent translation without affecting CAP-dependent translation (screening, FIG. 2) (IRES of EV71) | IC50 (IRES of EV71; Enterovirus A, EV71, COS-1, read-out: calculated IC50 for inhibition of IRES-dependent translation of EV71) [µg/mL] | inhibition at 250 µg/mL (IRES of EV71; Enterovirus A, EV71, COS-1, read-out: inhibition of IRES-dependent translation activity) [%] | gene inhibition (EV71-IRES mediated gene expression) (IRES of EV71; dose of about 0.01 mg/ml (FIG. 5A)) [%] | gene inhibition (EV71-IRES mediated gene expression) (IRES of EV71; dose of about 0.25 mg/ml (FIG. 5A)) [%] | effect on SEAP activities (IRES of EV71; pGS-EV71 transfected cells, 0.01 mg/ml to 0.25 mg/ml (FIG. 3B)) | IC50 (IRES of EMCV; Cardiovirus A, COS-1, read-out: calculated IC50 for inhibition of IRES-dependent translation of EMCV) [µg/mL] | inhibition at 250 µg/mL (IRES of EMCV; Cardiovirus A, COS-1, read-out: inhibition of IRES-dependent translation activity) [%] | gene inhibition (EMCV-IRES mediated gene expression) (IRES of EMCV; dose of about 0.05 mg/ml (FIG. 5B)) [%] | gene inhibition (EMCV-IRES mediated gene expression) (IRES of EMCV; dose of about 0.25 mg/ml (FIG. 5B)) [%] | effect on SEAP activities (IRES of EMCV; pGS-EMCV transfected cells, 0.01 mg/ml to 0.25 mg/ml (FIG. 4B)) | effect on CAP-dependent translation activity ([1]; 0.25 mg/ml, pGS-EV71 cells (FIG. 3)) | effect on β-gal activities ([1]; pGS-EV71 transfected cells, 0.01 mg/ml to 0.25 mg/ml (FIG. 3A)) | effect on CAP-dependent translation activity ([2]; 0.25 mg/ml, pGS-EMCV cells (FIG. 4)) | effect on β-gal activities ([2]; pGS-EMCV transfected cells, 0.01 mg/ml to 0.25 mg/ml (FIG. 4A)) | IC50 (EV-71) [µg/mL] | effects on IRES of HCV (IRES of HCV)
1 | NC12CC3CC(CC(C3)C1)C2 [amantadine, 1-Aminoadamantane] | selective inhibition on IRES-dependent translation without affecting CAP-dependent translation | ~55 (≈ 364 µM) | ~80 | 20 | 80 | inhibits SEAP activities | ~45 (≈ 298 µM) | ~80 | 20 | 80 | inhibits SEAP activities | relatively no effect | little or no effect | relatively no effect | little or no effect | ~8820 (≈ 58300 µM) | no effects
2 | Cc1cn([C@H]2C=C[C@@H](CO)O2)c(=O)[nH]c1=O [stavudine] | only amantadine demonstrates selective inhibition |  |  |  |  |  |  |  |  |  |  |  |  |  |  |  | 
